Assay results as given in ChEMBL document CHEMBL1141727, “Isolation and cytotoxic evaluation of marine sponge-derived norterpene peroxides” (J Nat Prod, 1998).

What was measured:
Type in all cases: functional
[1] = tested on: OVCAR-4; test: Growth inhibition of human OVCAR4 cells
[2] = tested on: KM12; test: Growth inhibition of human KM12 cells
[3] = Growth inhibition of human H116 cells assessed as zone units at 50 ug/disk by disk diffusion agar colony formation assay
[4] = tested on: A498; test: Growth inhibition of human A498 cells
[5] = tested on: PO3; test: Growth inhibition of mouse PO3 cells assessed as zone units at 50 ug/disk by disk diffusion agar colony formation assay
[6] = tested on: HCT-116; test: Growth inhibition of human HCT116 cells
[7] = tested on: PC-3; test: Growth inhibition of human PC3 cells
[8] = Growth inhibition of human MCF7/ADR resistant cells; conditions: NCI/ADR-RES
[9] = tested on: OVCAR-5; test: Growth inhibition of human OVCAR5 cells
[10] = tested on: HOP-62; test: Growth inhibition of human HOP62 cells
[11] = tested on: U-251; test: Growth inhibition of human U251 cells
[12] = tested on: OVCAR-3; test: Growth inhibition of human OVCAR-3 cells
[13] = tested on: SNB-19; test: Growth inhibition of human SNB19 cells
[14] = tested on: COLO 205; test: Growth inhibition of human COLO205 cells
[15] = tested on: NCI-H460; test: Growth inhibition of human NCI-H460 cells
[16] = tested on: MDA-MB-435; test: Growth inhibition of human MDA-MB-435 cells
[17] = tested on: 786-0; test: Growth inhibition of human 786-0 cells
[18] = tested on: SF-268; test: Growth inhibition of human SF268 cells
[19] = tested on: ACHN; test: Growth inhibition of human ACHN cells
[20] = tested on: MCF7; test: Growth inhibition of human MCF7 cells
[21] = tested on: M14; test: Growth inhibition of human M14 cells
[22] = tested on: IGROV-1; test: Growth inhibition of human IGROV1 cells
[23] = tested on: SK-MEL-5; test: Growth inhibition of human SK-MEL-5 cells
[24] = tested on: MDA-N; test: Growth inhibition of human MDA-N cells
[25] = tested on: SK-OV-3; test: Growth inhibition of human SKOV3 cells
[26] = tested on: SN12C; test: Growth inhibition of human SN12C cells
[27] = tested on: CX-1; test: Growth inhibition of human CX-1 cells assessed as zone units at 50 ug/disk by disk diffusion agar colony formation assay
[28] = tested on: NCI-H23; test: Growth inhibition of human NCI-H23 cells
[29] = tested on: CAKI-1; test: Growth inhibition of human Caki1 cells
[30] = tested on: SK-MEL-28; test: Growth inhibition of human SK-MEL-28 cells
[31] = tested on: MC-38; test: Growth inhibition of mouse C38 cells assessed as zone units at 50 ug/disk by disk diffusion agar colony formation assay
[32] = tested on: SNB-75; test: Growth inhibition of human SNB75 cells
[33] = tested on: L1210; test: Growth inhibition of mouse L1210 cells assessed as zone units at 50 ug/disk by disk diffusion agar colony formation assay
[34] = tested on: HL-60(TB); test: Growth inhibition of human HL-60(TB) cells
[35] = tested on: MDA-MB-231; test: Growth inhibition of human MDA-MB-231 cells
[36] = tested on: A549; test: Growth inhibition of human A549 cells
[37] = tested on: SF-539; test: Growth inhibition of human SF539 cells
[38] = tested on: HCT-15; test: Growth inhibition of human HCT15 cells
[39] = tested on: HOP-92; test: Growth inhibition of human HOP92 cells
[40] = tested on: NCI-H226; test: Growth inhibition of human NCI-H226 cells
[41] = tested on: NCI-H322M; test: Growth inhibition of human NCI-H322M cells
[42] = tested on: SK-MEL-2; test: Growth inhibition of human SK-MEL-2 cells
[43] = tested on: TK-10; test: Growth inhibition of human TK10 cells
[44] = tested on: HT-29; test: Growth inhibition of human HT-29 cells
[45] = tested on: RXF 393; test: Growth inhibition of human […] cells
[46] = Growth inhibition of mouse M17/ADR cells assessed as zone units at 50 ug/disk by disk diffusion agar colony formation assay
[47] = tested on: MOLT-4; test: Growth inhibition of human MOLT4 cells
[48] = tested on: UO-31; test: Growth inhibition of human UO31 cells
[49] = tested on: OVCAR-8; test: Growth inhibition of human OVCAR8 cells
[50] = tested on: SW-620; test: Growth inhibition of human SW620 cells
[51] = tested on: P388; test: Growth inhibition of mouse P388 cells assessed as zone units at 50 ug/disk by disk diffusion agar colony formation assay
[52] = tested on: BT-549; test: Growth inhibition of human BT549 cells
[53] = tested on: SF-295; test: Growth inhibition of human SF295 cells
[54] = tested on: LOX IMVI; test: Growth inhibition of human LOXIMVI cells
[55] = tested on: T47D; test: Growth inhibition of human T47D cells
[56] = tested on: EKVX; test: Growth inhibition of human EKVX cells
[57] = tested on: UACC-257; test: Growth inhibition of human UACC257 cells
[58] = tested on: HCC 2998; test: Growth inhibition of human HCC2998 cells

## CC1=C(CC/C(C)=C/CC[C@@]2(C)CC[C@H]([C@H](C)C(=O)O)OO2)C(C)(C)CCC1
[1]
  GI50: > 5 µM
[2]
  GI50: > 5 µM
[3]
  Activity: 80 Zone units
[4]
  GI50: > 5 µM
[5]
  Activity: 40 Zone units
[6]
  GI50: > 5 µM
[7]
  GI50: > 5 µM
[8]
  GI50: > 5 µM
[9]
  GI50: > 5 µM
[10]
  GI50: > 5 µM
[11]
  GI50: > 5 µM
[12]
  GI50: > 5 µM
[13]
  GI50: > 5 µM
[14]
  GI50: > 5 µM
[15]
  GI50: > 5 µM
[16]
  GI50: > 5 µM
[17]
  GI50: > 5 µM
[18]
  GI50: > 5 µM
[19]
  GI50: > 5 µM
[20]
  GI50: > 5 µM
[21]
  GI50: > 5 µM
[22]
  GI50: 1.11 µM
[23]
  GI50: > 5 µM
[24]
  GI50: > 5 µM
[25]
  GI50: > 5 µM
[26]
  GI50: > 5 µM
[27]
  Activity: 100 Zone units
[28]
  GI50: > 5 µM
[29]
  GI50: > 5 µM
[30]
  GI50: 0.43 µM
[31]
  Activity: 60 Zone units
[32]
  GI50: > 5 µM
[33]
  Activity: 110 Zone units
[34]
  GI50: 1.77 µM
[35]
  GI50: > 5 µM
[36]
  GI50: > 5 µM
[37]
  GI50: > 5 µM
[38]
  GI50: > 5 µM
[39]
  GI50: > 5 µM
[40]
  GI50: > 5 µM
[41]
  GI50: > 5 µM
[42]
  GI50: > 5 µM
[43]
  GI50: > 5 µM
[44]
  GI50: > 5 µM
[45]
  GI50: > 5 µM
[46]
  Activity: 80 Zone units
[47]
  GI50: > 5 µM
[48]
  GI50: > 5 µM
[49]
  GI50: > 5 µM
[50]
  GI50: > 5 µM
[51]
  Activity: 110 Zone units
[52]
  GI50: > 5 µM
[53]
  GI50: > 5 µM
[54]
  GI50: 2.17 µM
[55]
  GI50: > 5 µM
[56]
  GI50: > 5 µM
[57]
  GI50: > 5 µM
[58]
  GI50: > 5 µM
